According to patent publication US8975410B2, “Crystal forms of 5-[3-(2,5-dichloro-4, 6-dimethyl-1-oxy-pyridine-3-yl)[1,2,4] oxadiazol-5-yl]-3-nitrobenzene-1,2-diol” (BIAL—Portela & CA., S.A., priority 2008, dated 2015):

Assays:
[1] = interconversion experiments of the polymorphs; conditions: for stability class of the polymorph: conclusion from interconversion experiments
[2] = drying under vacuum at ambient temperature or at 60° C.
[3] = about 5% to about 95% relative humidity at 25° C. over a period of 3 months

Compound	stability class of the polymorph [1]	polymorphic conversion in interconversion experiments [1]	polymorph produced on drying [2]	further results
Cc1c(Cl)c(C)[n+]([O-])c(Cl)c1-c1noc(-c2cc(O)c(O)c([N+](=O)[O-])c2)n1 [polymorph B, 5-[3-(2,5-dichloro-4,6-dimethyl-1-oxy-pyridin-3-yl)-[1,2,4]oxadiazol-5-yl]-3-nitrobenzene-1,2-diol]	kinetically stable polymorphs			polymorphic conversion when slurried in water ([1]; slurried in water containing crystal seeds of modification A over prolonged periods of time): converts into polymorph A
Cc1c(Cl)c(C)[n+]([O-])c(Cl)c1-c1noc(-c2cc(O)c(O)c([N+](=O)[O-])c2)n1 [polymorph C, 5-[3-(2,5-dichloro-4,6-dimethyl-1-oxy-pyridin-3-yl)-[1,2,4]oxadiazol-5-yl]-3-nitrobenzene-1,2-diol]		convert into polymorph A or B	produced polymorph B	
Cc1c(Cl)c(C)[n+]([O-])c(Cl)c1-c1noc(-c2cc(O)c(O)c([N+](=O)[O-])c2)n1 [polymorph E, 5-[3-(2,5-dichloro-4,6-dimethyl-1-oxy-pyridin-3-yl)-[1,2,4]oxadiazol-5-yl]-3-nitrobenzene-1,2-diol]		convert into polymorph A or B	produced polymorph A	
Cc1c(Cl)c(C)[n+]([O-])c(Cl)c1-c1noc(-c2cc(O)c(O)c([N+](=O)[O-])c2)n1 [polymorph F, 5-[3-(2,5-dichloro-4,6-dimethyl-1-oxy-pyridin-3-yl)-[1,2,4]oxadiazol-5-yl]-3-nitrobenzene-1,2-diol]		convert into polymorph A or B		
Cc1c(Cl)c(C)[n+]([O-])c(Cl)c1-c1noc(-c2cc(O)c(O)c([N+](=O)[O-])c2)n1 [polymorph D, 5-[3-(2,5-dichloro-4,6-dimethyl-1-oxy-pyridin-3-yl)-[1,2,4]oxadiazol-5-yl]-3-nitrobenzene-1,2-diol]		convert into polymorph A or B		
Cc1c(Cl)c(C)[n+]([O-])c(Cl)c1-c1noc(-c2cc(O)c(O)c([N+](=O)[O-])c2)n1 [polymorph A, 5-[3-(2,5-dichloro-4,6-dimethyl-1-oxy-pyridin-3-yl)-[1,2,4]oxadiazol-5-yl]-3-nitrobenzene-1,2-diol]	thermodynamically stable polymorph			hygroscopicity [3]: non-hygroscopic
